# Read-outs that look alike come from different tables or passages of the source.
# Legend:
# DYRK3 = target: T1, DYRK3 (Homo sapiens, UniProt O43781); experiment: Protein kinase assay; type: biochemical
# T1 sequence (O43781 1-588): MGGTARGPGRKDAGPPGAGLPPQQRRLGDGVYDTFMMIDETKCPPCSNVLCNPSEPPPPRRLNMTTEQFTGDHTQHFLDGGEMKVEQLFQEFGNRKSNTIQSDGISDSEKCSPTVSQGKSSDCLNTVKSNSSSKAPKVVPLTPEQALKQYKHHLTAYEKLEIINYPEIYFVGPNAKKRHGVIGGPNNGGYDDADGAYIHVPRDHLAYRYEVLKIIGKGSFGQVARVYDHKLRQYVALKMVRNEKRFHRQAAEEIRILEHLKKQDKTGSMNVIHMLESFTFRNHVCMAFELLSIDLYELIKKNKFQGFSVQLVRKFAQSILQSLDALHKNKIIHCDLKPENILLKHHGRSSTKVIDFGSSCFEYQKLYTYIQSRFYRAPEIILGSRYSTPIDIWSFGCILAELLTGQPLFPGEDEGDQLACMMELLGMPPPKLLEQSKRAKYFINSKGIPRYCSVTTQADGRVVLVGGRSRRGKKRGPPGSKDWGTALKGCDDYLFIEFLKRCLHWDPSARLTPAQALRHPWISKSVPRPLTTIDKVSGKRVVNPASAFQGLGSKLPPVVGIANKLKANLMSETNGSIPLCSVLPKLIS
# LmCK1 = LmCK1 (Leishmania major, UniProt Q9NHE1); experiment: Protein kinase assay; type: biochemical
# Procedure: CK1δ/ε (porcine brain, native) and LmCK1 (leishmania major, recombinant, expressed in E. coli as HIS fusion proteins) was assayed as described for CDK1 but in buffer C and using 25 μM CKS peptide ([…]pSAYSITA), a CK1-specific substrate.
# PfCLK1 = PfCLK1 (Plasmodium falciparum, UniProt Q8IL19); experiment: Protein kinase assay; type: biochemical
# TgCLK = TgCLK (Toxoplasma gondii, UniProt V4ZJD6); experiment: Protein kinase assay; type: biochemical
# CLK4 = CLK4 (Mus musculus, UniProt O35493); experiment: Protein kinase assay; conditions: IC50 CLK4, 15 μmol/L ATP
# CLK1 = CLK1 (Mus musculus, UniProt P22518); experiment: Protein kinase assay; conditions: IC50 CLK1, 15 μmol/L ATP
# CLK3 = CLK3 (Mus musculus, UniProt O35492); experiment: Protein kinase assay; conditions: IC50 CLK3, 15 μmol/L ATP
# CDK1/cyclin B = experiment: Protein kinase assay; type: biochemical, starfish; conditions: 15 μmol/L ATP
# CDK5/p25 = target: T2, CDK5/p25 (Homo sapiens, UniProt Q00535); experiment: Protein kinase assay; type: biochemical
# T2 construct: made in house
# CDK9/cyclin T = CDK9/cyclin T (Homo sapiens, UniProt P50750); experiment: Protein kinase assay; conditions: IC50 CDK9/cyclin T, 15 μmol/L ATP
# [1] = test system: 27 purified kinases (14 mammalian and 13 unicellular parasites); experiment: Battery of 27 purified kinases
# WEE2 = target: T3, WEE2 (Homo sapiens, UniProt P0C1S8); experiment: KinomeScan; type: binding; conditions: 1 μM
# T3 construct: purchased DiscoverX (KINOMEscan)
# Procedure: (§1) Assays were performed essentially as described previously. For most assays, kinase-tagged T7 phage strains were grown in parallel in 24-well blocks in an E. coli host derived from the BL21 strain. E. coli were grown to log-phase and infected with T7 phage from a frozen stock (multiplicity of infection ~0.1) and incubated with shaking at 32 °C until lysis (~90 min). The lysates were centrifuged (6000× g) and filtered (0.2 μm) to remove cell debris. The remaining kinases were produced in HEK-293 cells and subsequently tagged with DNA for qPCR detection. […] The liganded beads were blocked with excess biotin and washed with blocking buffer (SeaBlock (Pierce, ThermoFisher Scientific, Illkirch, France), 1% BSA, 0.05% Tween 20, 1 mM DTT) to remove unbound ligand and to reduce non-specific phage binding. […] An 11-point threefold serial dilution of each test compound was prepared in 100% DMSO at 100× final test concentration which and subsequently diluted to 1× in the assay. All reactions were performed in polystyrene 96-well plates in a final volume of 0.135 mL. […] The kinase concentration in the eluates was measured by qPCR.
# TLK2 = target: T4, TLK2 (Homo sapiens, UniProt Q86UE8); experiment: KinomeScan; type: binding; conditions: 1 μM
# T4 construct: purchased DiscoverX (KINOMEscan)
# Procedure: as §1
# CDKL3 = target: T5, CDKL3 (Homo sapiens, UniProt Q8IVW4); experiment: KinomeScan; type: binding; conditions: 1 μM
# T5 construct: purchased DiscoverX (KINOMEscan)
# Procedure: as §1
# [2] = 15 μmol/L ATP, read-out: IC50 DYRK3
# [3] = 15 μmol/L ATP, read-out: IC50 LmCK1
# [4] = 15 μmol/L ATP, read-out: IC50 PfCLK1
# [5] = 15 μmol/L ATP; read-out: IC50 TgCLK
# [6] = 15 μmol/L ATP, read-out: IC50 CDK5/p25
# Chain of CLK1 (P22518 whole entry): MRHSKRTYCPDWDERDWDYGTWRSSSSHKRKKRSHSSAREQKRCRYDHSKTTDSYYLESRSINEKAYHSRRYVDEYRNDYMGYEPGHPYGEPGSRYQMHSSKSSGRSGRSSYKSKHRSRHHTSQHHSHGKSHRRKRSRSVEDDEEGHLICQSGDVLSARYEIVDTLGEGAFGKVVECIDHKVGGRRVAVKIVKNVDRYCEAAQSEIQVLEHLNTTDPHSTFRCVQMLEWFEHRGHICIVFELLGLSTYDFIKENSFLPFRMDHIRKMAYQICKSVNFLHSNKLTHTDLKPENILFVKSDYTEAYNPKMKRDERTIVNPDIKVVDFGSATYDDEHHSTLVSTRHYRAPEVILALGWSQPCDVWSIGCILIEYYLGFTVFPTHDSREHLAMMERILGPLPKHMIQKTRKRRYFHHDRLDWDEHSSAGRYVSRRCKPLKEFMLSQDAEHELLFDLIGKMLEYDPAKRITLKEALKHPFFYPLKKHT
# Chain of CLK3 (O35492 whole entry): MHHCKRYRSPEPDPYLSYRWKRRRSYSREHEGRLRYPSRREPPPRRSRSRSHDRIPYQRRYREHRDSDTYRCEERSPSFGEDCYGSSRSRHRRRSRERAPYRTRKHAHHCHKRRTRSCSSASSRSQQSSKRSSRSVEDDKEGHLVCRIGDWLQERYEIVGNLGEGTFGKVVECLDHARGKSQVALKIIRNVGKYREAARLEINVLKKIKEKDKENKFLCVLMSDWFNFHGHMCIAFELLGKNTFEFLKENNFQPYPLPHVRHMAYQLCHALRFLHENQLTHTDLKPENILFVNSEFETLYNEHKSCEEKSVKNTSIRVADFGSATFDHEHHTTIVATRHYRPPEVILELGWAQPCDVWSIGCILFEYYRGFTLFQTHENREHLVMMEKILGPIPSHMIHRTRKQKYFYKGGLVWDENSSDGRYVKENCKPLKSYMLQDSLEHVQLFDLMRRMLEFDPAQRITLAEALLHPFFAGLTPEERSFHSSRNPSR
# Chain of LmCK1 (Q9NHE1 entry or part of it): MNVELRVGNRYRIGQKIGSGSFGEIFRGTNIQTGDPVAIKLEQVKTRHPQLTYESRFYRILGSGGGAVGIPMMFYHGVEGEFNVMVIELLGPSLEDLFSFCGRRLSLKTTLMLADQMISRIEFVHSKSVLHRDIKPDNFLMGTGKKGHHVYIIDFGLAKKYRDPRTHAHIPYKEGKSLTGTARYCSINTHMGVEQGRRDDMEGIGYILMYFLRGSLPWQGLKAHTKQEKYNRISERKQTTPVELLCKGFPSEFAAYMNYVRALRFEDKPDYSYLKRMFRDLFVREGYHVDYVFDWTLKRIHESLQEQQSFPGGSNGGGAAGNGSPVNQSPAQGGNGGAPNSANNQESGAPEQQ
# Chain of PfCLK1 (Q8IL19 entry or part of it): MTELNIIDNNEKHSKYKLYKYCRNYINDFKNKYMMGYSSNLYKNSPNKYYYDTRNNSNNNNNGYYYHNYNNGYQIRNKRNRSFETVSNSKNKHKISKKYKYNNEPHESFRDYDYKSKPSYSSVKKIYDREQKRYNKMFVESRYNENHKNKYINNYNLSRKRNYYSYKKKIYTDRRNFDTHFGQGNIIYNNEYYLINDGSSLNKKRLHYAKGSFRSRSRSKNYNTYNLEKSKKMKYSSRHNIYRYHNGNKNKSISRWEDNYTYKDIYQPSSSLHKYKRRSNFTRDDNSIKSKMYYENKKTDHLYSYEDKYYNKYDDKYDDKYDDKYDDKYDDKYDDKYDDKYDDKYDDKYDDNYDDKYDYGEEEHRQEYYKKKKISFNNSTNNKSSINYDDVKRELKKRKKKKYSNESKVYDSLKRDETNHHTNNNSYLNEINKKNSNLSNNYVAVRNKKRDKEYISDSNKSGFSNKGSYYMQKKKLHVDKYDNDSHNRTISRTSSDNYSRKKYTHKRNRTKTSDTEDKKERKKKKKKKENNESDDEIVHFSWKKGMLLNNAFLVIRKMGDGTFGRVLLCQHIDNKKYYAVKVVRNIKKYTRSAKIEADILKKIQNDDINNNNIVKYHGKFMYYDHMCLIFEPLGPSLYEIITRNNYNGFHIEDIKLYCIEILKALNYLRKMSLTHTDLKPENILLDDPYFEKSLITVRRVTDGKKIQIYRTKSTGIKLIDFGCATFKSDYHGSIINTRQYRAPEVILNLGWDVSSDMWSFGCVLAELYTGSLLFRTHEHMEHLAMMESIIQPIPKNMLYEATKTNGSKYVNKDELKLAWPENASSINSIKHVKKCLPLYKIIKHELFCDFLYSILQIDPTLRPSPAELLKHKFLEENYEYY
# Chain of CLK4 (O35493 whole entry): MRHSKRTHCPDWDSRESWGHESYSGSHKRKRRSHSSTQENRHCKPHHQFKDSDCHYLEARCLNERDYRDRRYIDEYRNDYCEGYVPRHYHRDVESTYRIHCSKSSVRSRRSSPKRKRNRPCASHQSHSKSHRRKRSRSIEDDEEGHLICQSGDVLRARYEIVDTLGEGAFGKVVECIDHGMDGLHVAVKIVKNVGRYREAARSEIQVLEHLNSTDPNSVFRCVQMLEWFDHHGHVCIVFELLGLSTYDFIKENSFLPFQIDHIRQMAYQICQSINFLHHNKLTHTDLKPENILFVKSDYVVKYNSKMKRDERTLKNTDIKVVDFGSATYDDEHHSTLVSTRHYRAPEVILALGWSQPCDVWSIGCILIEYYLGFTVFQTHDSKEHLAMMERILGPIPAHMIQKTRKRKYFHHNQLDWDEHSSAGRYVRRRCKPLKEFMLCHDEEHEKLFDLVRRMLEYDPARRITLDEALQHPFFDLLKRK
# T2 sequence (Q00535 whole entry): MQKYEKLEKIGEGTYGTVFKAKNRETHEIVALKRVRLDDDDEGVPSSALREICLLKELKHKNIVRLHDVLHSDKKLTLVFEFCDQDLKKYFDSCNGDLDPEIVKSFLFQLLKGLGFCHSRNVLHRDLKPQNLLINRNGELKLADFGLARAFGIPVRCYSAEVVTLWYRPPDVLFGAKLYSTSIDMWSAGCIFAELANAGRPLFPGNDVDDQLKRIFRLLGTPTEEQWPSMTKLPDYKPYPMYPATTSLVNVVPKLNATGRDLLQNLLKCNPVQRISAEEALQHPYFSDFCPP
# T2 sequence (Q15078 99-307 partner limits assumed): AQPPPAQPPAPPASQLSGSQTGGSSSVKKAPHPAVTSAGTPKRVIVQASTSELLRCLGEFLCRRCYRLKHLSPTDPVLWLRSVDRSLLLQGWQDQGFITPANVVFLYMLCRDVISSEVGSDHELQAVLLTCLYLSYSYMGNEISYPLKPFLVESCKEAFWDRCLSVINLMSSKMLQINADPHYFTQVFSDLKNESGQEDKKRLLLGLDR
# Chain of CDK9/cyclin T (P50750 whole entry): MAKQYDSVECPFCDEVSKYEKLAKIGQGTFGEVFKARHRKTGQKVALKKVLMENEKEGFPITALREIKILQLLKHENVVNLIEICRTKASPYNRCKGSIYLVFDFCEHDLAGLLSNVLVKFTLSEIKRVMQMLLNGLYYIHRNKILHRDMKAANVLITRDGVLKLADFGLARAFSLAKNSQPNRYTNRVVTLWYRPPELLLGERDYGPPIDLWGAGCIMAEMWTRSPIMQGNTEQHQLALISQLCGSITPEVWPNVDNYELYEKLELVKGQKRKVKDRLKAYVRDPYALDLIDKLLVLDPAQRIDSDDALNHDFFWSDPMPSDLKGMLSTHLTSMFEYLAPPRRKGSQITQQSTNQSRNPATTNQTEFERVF
# Chain of CDK9/cyclin T (O60563 whole entry partner): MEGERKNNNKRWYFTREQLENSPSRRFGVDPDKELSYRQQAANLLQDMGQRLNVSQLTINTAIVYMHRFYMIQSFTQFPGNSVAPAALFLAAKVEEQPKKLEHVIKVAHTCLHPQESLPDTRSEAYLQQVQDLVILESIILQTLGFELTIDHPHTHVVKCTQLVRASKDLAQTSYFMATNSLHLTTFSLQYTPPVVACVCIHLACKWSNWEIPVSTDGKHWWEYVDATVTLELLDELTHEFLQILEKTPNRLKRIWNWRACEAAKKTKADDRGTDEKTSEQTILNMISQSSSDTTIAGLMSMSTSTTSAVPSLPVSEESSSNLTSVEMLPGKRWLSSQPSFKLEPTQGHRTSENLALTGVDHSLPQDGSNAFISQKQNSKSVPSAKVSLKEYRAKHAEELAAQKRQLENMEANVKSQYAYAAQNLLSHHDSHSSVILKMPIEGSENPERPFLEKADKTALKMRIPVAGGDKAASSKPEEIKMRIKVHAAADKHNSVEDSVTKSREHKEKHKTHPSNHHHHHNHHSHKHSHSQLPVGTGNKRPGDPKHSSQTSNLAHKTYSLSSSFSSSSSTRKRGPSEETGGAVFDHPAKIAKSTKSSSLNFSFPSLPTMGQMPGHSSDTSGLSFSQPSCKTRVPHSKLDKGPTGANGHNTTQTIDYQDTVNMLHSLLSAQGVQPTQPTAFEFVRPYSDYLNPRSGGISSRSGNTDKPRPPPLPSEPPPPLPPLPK
# T5 sequence (Q8IVW4 whole entry): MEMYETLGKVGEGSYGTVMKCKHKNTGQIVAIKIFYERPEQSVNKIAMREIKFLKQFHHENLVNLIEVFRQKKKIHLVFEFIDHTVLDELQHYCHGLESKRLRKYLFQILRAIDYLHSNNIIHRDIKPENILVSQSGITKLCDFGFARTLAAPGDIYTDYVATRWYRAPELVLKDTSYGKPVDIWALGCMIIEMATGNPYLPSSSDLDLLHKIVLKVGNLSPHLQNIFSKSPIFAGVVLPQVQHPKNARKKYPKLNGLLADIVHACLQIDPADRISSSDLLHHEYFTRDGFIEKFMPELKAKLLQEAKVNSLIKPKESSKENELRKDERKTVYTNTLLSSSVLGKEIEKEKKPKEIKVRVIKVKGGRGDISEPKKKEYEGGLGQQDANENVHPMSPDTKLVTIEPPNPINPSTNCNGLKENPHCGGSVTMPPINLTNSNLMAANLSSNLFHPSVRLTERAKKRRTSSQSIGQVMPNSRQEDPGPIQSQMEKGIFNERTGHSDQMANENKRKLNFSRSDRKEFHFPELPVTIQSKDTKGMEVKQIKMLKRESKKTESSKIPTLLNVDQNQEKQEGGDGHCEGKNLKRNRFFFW
IC50 (DYRK3; [2]) [µM],IC50 (LmCK1; [3]) [µM],IC50 (PfCLK1; [4]) [µM],IC50 (CLK4) [µM],IC50 (CLK1) [µM],IC50 (CLK3) [µM],IC50 (CDK1/cyclin B) [µM],IC50 (CDK5/p25; [6]) [µM],IC50 (CDK9/cyclin T) [µM],activity in the kinase panel [1],IC50 (CDK5/p25) [µM],SMILES,IC50 (TgCLK; [5]) [µM],"IC50 (DYRK3; IC50 DYRK3, 15 μmol/L ATP) [µM]",IC50 (LmCK1) [µM],IC50 (PfCLK1) [µM],IC50 (TgCLK; read-out: IC50 TgCLK; 15 μmol/L ATP) [µM],Score (WEE2),Score (TLK2),Score (CDKL3)
> 10,> 10,> 10,> 10,> 10,> 10,> 10,> 10,> 10,essentially inactive,,CN1C(=N)N(C)/C(=C\c2c[nH]c3ccccc23)C1=O [Aplysinopsine],> 10,,,,,,,
6.1,> 10,> 10,3.5,7.2,> 10,> 10,> 10,> 10,essentially inactive,,CN1C(=N)N=C(Nc2nc(Cc3ccc4c(c3)OCO4)cn2C)C1=O [Clathridimine],> 10,,,,,,,
> 10,> 10,> 10,3.9,6.9,> 10,> 10,> 10,> 10,essentially inactive,,CN1C(=O)N=C(Nc2nc(Cc3ccc4c(c3)OCO4)cn2C)C1=O [Clathridine],> 10,,,,,,,
> 10,> 10,> 10,> 10,> 10,> 10,> 10,> 10,> 10,essentially inactive,,NC1=N/C(=C\CCNC(=O)c2cc(Br)c(Br)[nH]2)C(=O)N1 [Dispacamide],> 10,,,,,,,
0.0049,0.0025,0.011,0.0029,0.003,0.0053,0.005,,0.011,,0.0061,"NC1=NC(=O)/C(=C2\CCNC(=O)c3[nH]c(Br)cc32)N1 [Hymenialdisine, reference compound]",0.041,,,,,,,
0.88,> 10,3.1,0.82,,8.6,> 10,> 10,5.2,,,NC1=N/C(=C\c2ccc(O)c(O)c2)C(=O)N1 [Polyandrocarpamine B],> 10,,,,,,,
0.044,0.025,0.085,0.0036,0.022,0.049,0.031,0.042,0.2,,,NC1=NC(=O)/C(=C2\CCNC(=O)c3[nH]cc(Br)c32)N1 [Spongiacidin B],0.48,,,,,,,

SMILES,IC50 (DYRK3; [2]) [µM],IC50 (LmCK1; [3]) [µM],IC50 (PfCLK1; [4]) [µM],IC50 (CLK4) [µM],IC50 (CLK1) [µM],IC50 (CLK3) [µM],IC50 (CDK1/cyclin B) [µM],IC50 (CDK5/p25; [6]) [µM],IC50 (CDK9/cyclin T) [µM],activity in the kinase panel [1],IC50 (CDK5/p25) [µM],IC50 (TgCLK; [5]) [µM],"IC50 (DYRK3; IC50 DYRK3, 15 μmol/L ATP) [µM]",IC50 (LmCK1) [µM],IC50 (PfCLK1) [µM],IC50 (TgCLK; read-out: IC50 TgCLK; 15 μmol/L ATP) [µM],Score (WEE2),Score (TLK2),Score (CDKL3)
CN1C(=O)/C(=C/c2ccc3c(c2)OCO3)N=C1N [Leucettamine B],,,,0.12,0.1,9.7,> 10,,> 10,modestly active,,,0.6,> 10,0.79,4.1,,,
COc1cc(/C=C2\N=C(N)NC2=O)ccc1O [Polyandrocarpamine A],0.17,> 10,0.65,0.32,1,2.6,,> 10,0.93,,,> 10,,,,,100,100,100

# From paper PMC5666424, “Marine-Derived 2-Aminoimidazolone Alkaloids. Leucettamine B-Related Polyandrocarpamines Inhibit Mammalian and Protozoan DYRK & CLK Kinases” (Marine Drugs, 2017)
